# Literature values as cited in patent US20060177860A1, “Genetic markers in the HLA-DQBI gene associated with an adverse hematological response to drugs” (priority 2005, published 2006).
# Settings: as taught by U.S. Pat. No. 5,312,819
compound,measurement,value
O=C1O[C@H]([C@@H](O)CO)C(O)=C1O [L-ascorbic acid],effect of radical scavenger on formation of free radicals of clozapine,reduces the formation of free radicals of clozapine
